Results as given in paper PMC10465125 (eLife, 2023).
“Also recorded” adds a separate entry of the source.

Assays:
[1] = system: SARS-CoV-2 spike Vpps of different variants (alpha, beta, gamma, delta, omicron); assay type: cell-based
SARS-CoV-2 omicron virus = test: microbe, parasite or virus in culture; assay type: cell-based

Row | Compound | suppression of entry of Vpp of beta, delta and omicron variant [1] | suppression of infection by Vpp of wild type, alpha variant, gamma variant [1] | EC50 (SARS-CoV-2 omicron virus; Severe acute respiratory syndrome coronavirus 2, Vero C1008, read-out: EC50 against omicron variant virus production) [µg/mL] | block of alpha, beta, gamma, delta, and omicron variants Vpp infection as well as wild-type Vpps [1] | EC50 against omicron variant virus production (SARS-CoV-2 omicron virus) [µg/mL]
1 | O=C1O[C@H]2[C@@H]3OC(=O)c4cc(O)c(O)c(O)c4-c4c(O)c(O)c5oc(=O)c6c(c(O)c(O)c7oc(=O)c4c5c76)-c4c(cc(O)c(O)c4O)C(=O)OC[C@H]3OC(O)[C@@H]2OC(=O)c2cc(O)c(O)c(O)c2-c2c1cc(O)c(O)c2O (mixture of isomers) [Punicalagin, punicalagin] | less potency and not | significant suppression; also recorded: potent inhibitor | 2.88 |  | 
2 | tannic acid [reference compound] |  | significant suppression |  | could block | 5.27
